The results in this text go back to article PMC9297786 (Molecular Oncology, 2022).

The inhibition is the relative decrease from the control value, in per cent. Broadly, the IC50 is the point on the concentration scale where inhibition reaches its midpoint.

Where a name gives a salt, the structure may show the parent alone. Read-outs that look alike come from different tables or passages of the source.

Assay in all cases: cells
The test system of assay [1] is K562. Also on record: MTT cell growth inhibition assay, absorbance at 490 nm. The settings on record: for inhibition at 10 µM: Homo sapiens, K562, 48 h, read-out: Inhibition rate (%, 10 μM). Here is the method:
Exponential‐phase cells were seeded into 96‐well plates at a density of 2 × 10^4 cells per well in complete medium. After 24 h, cells were treated with drugs at indicated concentrations and incubated for 48 h. Fresh medium containing 20 μL MTT solution (5 mg·mL^−1) was then added to each well. Then plates were incubated for another 4 h at 37 °C. After removing the medium, 150 μL DMSO was added to each well. The absorbance was recorded at 490 nm in the microplate reader and the inhibition ratio (I%) was calculated. The cell growth assay was conducted as described previously. K562 cells were cultured in IMDM containing 10% fetal bovine serum, 100 U·mL^−1 penicillin and 100 U·mL^−1 streptomycin. […] MEG‐01 cells were cultured in DMEM containing 10% fetal bovine serum, 100 U·mL^−1 penicillin and 100 U·mL^−1 streptomycin. […] Cells were grown at 37 °C in a humidified atmosphere with 5% CO2. […] To identify an EPHB4‐specific inhibitor with a potential of rapid translation into clinic, a pool of clinically approved TKIs and compounds was screened in this study (Fig. S2 and Table S4).

The subject of assay [2] is K562. Further details: MTT cell viability of wild-type K562 beside EPHB4 mutant sublines, 48 h. The following applies: Homo sapiens, K562, 48 h; read-out: IC50 (uM) K562-WT. Here is the method: Exponential‐phase cells were seeded into 96‐well plates at a density of 2 × 10^4 cells per well in complete medium. After 24 h, cells were treated with drugs at indicated concentrations and incubated for 48 h. Fresh medium containing 20 μL MTT solution (5 mg·mL^−1) was then added to each well. Then plates were incubated for another 4 h at 37 °C. After removing the medium, 150 μL DMSO was added to each well. The absorbance was recorded at 490 nm in the microplate reader and the inhibition ratio (I%) was calculated. The cell growth assay was conducted as described previously. […] Similar results were shown for M4 mutants. […] (a) Three‐dimensional structure graph; (b) binding region; (c) plane schematic of interaction between the receptor and ligand. (B) Genomic position of sgRNAs and PAMs for EPHB4 knock‐out line, PAM site was colored in red. (C) The protein expression of EPHB4 in K562, K562‐Crispr‐1 and K562‐Crispr‐2 cells determined by western blot assay. P‐values were generated by one‐way ANOVA using the Tukey test for multiple comparisons. **P < 0.01 versus the K562 group. […] P‐values were generated by one‐way ANOVA using the Tukey test for multiple comparisons. *P < 0.05 versus the K562 group. (E) Five point‐mutation (M1–M5) and their corresponding wild‐type (WT) sequences. The point‐mutations of EPHB4: M1, I14A, G15A; M2, M83A, N85A, G86A; M3, A87Del; M4, S90A, F91A; M5, R93A, L94A. […]

Assay [3] concerns K562. Also on record: MTT cell growth inhibition after 48 h. The settings on record: Homo sapiens, K562, 48 h. On the procedure: (§1) Exponential‐phase cells were seeded into 96‐well plates at a density of 2 × 10^4 cells per well in complete medium. After 24 h, cells were treated with drugs at indicated concentrations and incubated for 48 h. Fresh medium containing 20 μL MTT solution (5 mg·mL^−1) was then added to each well. Then plates were incubated for another 4 h at 37 °C. After removing the medium, 150 μL DMSO was added to each well. The absorbance was recorded at 490 nm in the microplate reader and the inhibition ratio (I%) was calculated. The cell growth assay was conducted as described previously. […] To identify an EPHB4‐specific inhibitor with a potential of rapid translation into clinic, a pool of clinically approved TKIs and compounds was screened in this study (Fig. S2 and Table S4).

Assay [4] has as its system MEG-01 cells. Also on record: MTT cell growth inhibition after 48 h. The following applies: Homo sapiens, MEG-01, 48 h. Here is the method: as §1
The test system of assay [5] is H9 cells. Also on record: MTT cell growth inhibition after 48 h. The settings on record: Homo sapiens, H9, 48 h. On the procedure:
as §1

On to `COc1cc2c(Nc3ccc(Br)cc3F)ncnc2cc1OCC1CCN(C)CC1` [vandetanib, N‐(4‐bromo‐2‐fluorophenyl)‐6‐methoxy‐7‐[(1‐methylpiperidin‐4‐yl)methoxy]quinazolin‐4‐amine], for which the inhibition at 10 µM in assay [1] amounted to 99.7%. Moreover, the IC50 in assay [2] was found to be 2.05 ± 1.08 µM; in assay [3], 2180 ± 1070 nM; in assay [4], 1460 ± 1070 nM; in assay [5], 11200 ± 1080 nM.

`CCCCC1=NC2(CCCC2)C(=O)N1Cc1ccc(-c2ccccc2-c2nnn[nH]2)cc1` [irbesartan]: the inhibition at 10 µM in assay [1] was -56.4%.

`CCOC(=O)C1=C(C)NC(C)=C(C(=O)OC)C1c1cccc([N+](=O)[O-])c1` (stereo not drawn) [nitrendipine]: the inhibition at 10 µM in assay [1] is -26.4%.

For `O=C(/C=C/c1ccc(O)cc1)c1ccc(O)cc1O` [isoliquiritigenin], in assay [1], the inhibition at 10 µM is -123%.

Turning to `CC(C)NCC(O)c1ccc(NS(C)(=O)=O)cc1` (stereo not drawn) [sotalol], the inhibition at 10 µM in assay [1] was -52.8%.

On to `CN1CCCC(n2nc(Cc3ccc(Cl)cc3)c3ccccc3c2=O)CC1` (stereo not drawn) [azelastine], for which the inhibition at 10 µM in assay [1] was -74.3%.

For the compound `O=C(/C=C/c1ccc(O)c(O)c1/C=C/c1ccc(O)c(O)c1)O[C@H](Cc1ccc(O)c(O)c1)C(=O)O` [salvianolic acid A], the inhibition at 10 µM in assay [1] was -32.3%.

With `COC(=O)C1=C(C)NC(C)=C(C(=O)OCCN(C)Cc2ccccc2)C1c1cccc([N+](=O)[O-])c1` (stereo not drawn) [nicardipine], the inhibition at 10 µM in assay [1] was -74.2%.

Take `C[C@H]1COC2=C1C(=O)C(=O)c1c2ccc2c1CCCC2(C)C` [cryptotanshinone]: the inhibition at 10 µM in assay [1] was -72.9%.

For `Cc1nnc(C(C)C)n1[C@@H]1C[C@H]2CC[C@@H](C1)N2CC[C@H](NC(=O)C1CCC(F)(F)CC1)c1ccccc1` [maraviroc], the inhibition at 10 µM in assay [1] is -56.3%.

`C=C1C(=O)O[C@@]23[C@H]1CC[C@@H](C)[C@@H]2CC[C@@]1(C)O[C@@H]31` [arteannuin b]: the inhibition at 10 µM in assay [1] was -8.46%.

As for `Cc1cn(-c2cc(NC(=O)c3ccc(C)c(Nc4nccc(-c5cccnc5)n4)c3)cc(C(F)(F)F)c2)cn1` [nilotinib], in assay [1], the inhibition at 10 µM was found to be 71.7%.

For the compound `OCc1cc(C(O)CNCCCCCCOCCCCc2ccccc2)ccc1O` (stereo not drawn) [salmeterol], the inhibition at 10 µM in assay [1] was -72.7%.

`CN(C)CCOC(c1ccccc1)c1ccccc1` [diphenhydramine]: in assay [1], the inhibition at 10 µM was -37.9%.

In the case of `Cc1ccnc2c1NC(=O)c1cccnc1N2C1CC1` [nevirapine], the inhibition at 10 µM in assay [1] is -47%.

Take `CC(C)(C)NC(=O)[C@@H]1CN(Cc2cccnc2)CCN1C[C@@H](O)C[C@@H](Cc1ccccc1)C(=O)N[C@H]1c2ccccc2C[C@H]1O` [indinavir]: in assay [1], the inhibition at 10 µM was -52.2%.

`CCN(CC)CCNC(=O)c1c(C)[nH]c(/C=C2\C(=O)Nc3ccc(F)cc32)c1C` [sunitinib]: the inhibition at 10 µM in assay [1] was found to be 73.5%.

As for `C#Cc1cccc(Nc2ncnc3cc(OCCOC)c(OCCOC)cc23)c1` [erlotinib], the inhibition at 10 µM in assay [1] was 3.52%.

On to `NC12CC3CC(CC(C3)C1)C2` [amantadine], for which the inhibition at 10 µM in assay [1] was -58.8%.

For `CN(C)C/C=C/C(=O)Nc1cc2c(Nc3ccc(F)c(Cl)c3)ncnc2cc1O[C@H]1CCOC1` [afatinib], the inhibition at 10 µM in assay [1] was 78.6%.

Take `CN1CC[C@]23c4c5ccc(O)c4O[C@H]2[C@@H](O)C=C[C@H]3[C@H]1C5` [morphine]: the “Inhibition rate (%, 10 μM)” value in assay [1] (48 h, inhibitor) is listed as -46.72%.

For the compound `O=C(/C=C/c1ccc(O)c2oc(-c3ccc(O)c(O)c3)cc12)O[C@H](Cc1ccc(O)c(O)c1)C(=O)O` [salvianolic acid C], the inhibition at 10 µM in assay [1] is -2.73%.

As for `Cc1cn([C@H]2C[C@H](N=[N+]=[N-])[C@@H](CO)O2)c(=O)[nH]c1=O` [zidovudine], in assay [1], the inhibition at 10 µM amounted to 10.3%.

`NCCc1ccc(O)c(O)c1` [dopamine]: the inhibition at 10 µM in assay [1] is -62.3%.

In the case of `CCCc1nc(C(C)(C)O)c(C(=O)O)n1Cc1ccc(-c2ccccc2-c2nnn[nH]2)cc1` [olmesartan], the inhibition at 10 µM in assay [1] was -34.8%.

Turning to `C[C@@H]1CC[C@H]2[C@@H](C)C(=O)O[C@@H]3O[C@@]4(C)CC[C@@H]1[C@]32OO4` [artemisinin], the inhibition at 10 µM in assay [1] is -161%.

In the case of `CC(=O)Oc1ccc2c3c1O[C@H]1[C@@H](OC(C)=O)C=C[C@H]4[C@@H](C2)N(C)CC[C@@]341` [heroin], the inhibition at 10 µM in assay [1] is -30.2%.

In the case of `CNC(=O)c1cc(Oc2ccc(NC(=O)Nc3ccc(Cl)c(C(F)(F)F)c3)c(F)c2)ccn1` [regorafenib], in assay [1], the inhibition at 10 µM was 8.49%.

As for `OCCOCCN1CCN(C2=Nc3ccccc3Sc3ccccc32)CC1` [quetiapine], the inhibition at 10 µM in assay [1] is -46.2%.

As to `COc1ccc2cc3[n+](cc2c1OC)CCc1cc2c(cc1-3)OCO2` [berberine], the inhibition at 10 µM in assay [1] was 49.8%.

Take `CC(NC(C)(C)C)C(=O)c1cccc(Cl)c1` (stereo not drawn) [bupropion]: the inhibition at 10 µM in assay [1] is -48.5%.

On to `O=C(O)[C@H]1O[C@@H](Oc2cc3oc(-c4ccccc4)cc(=O)c3c(O)c2O)[C@H](O)[C@@H](O)[C@@H]1O` [baicalin], for which the inhibition at 10 µM in assay [1] is -31%.

For `CN1CCC(=C2c3ccccc3C=Cc3ccccc32)CC1` [cyproheptadine], the inhibition at 10 µM in assay [1] was -38.4%.

As for `Cc1ccc(Nc2nccc(N(C)c3ccc4c(C)n(C)nc4c3)n2)cc1S(N)(=O)=O` [pazopanib], in assay [1], the inhibition at 10 µM was found to be 76.2%.

Consider `CC(=O)Oc1c(C)cc(OCC(O)CNC(C)C)c(C)c1C` (stereo not drawn) [metipranolol], for which the inhibition at 10 µM in assay [1] was -26.8%.

`O=c1c(O)c(-c2ccc(O)c(O)c2)oc2cc(O)cc(O)c12` [quercetin]: in assay [1], the inhibition at 10 µM is -58.4%.

For `CCN(CC)CC(=O)Nc1c(C)cccc1C` [lidocaine], the inhibition at 10 µM in assay [1] was -38.5%.

`O=c1[nH]c2ccccc2n1CCCN1CCC(n2c(=O)[nH]c3cc(Cl)ccc32)CC1` [domperidone]: the inhibition at 10 µM in assay [1] is -38.6%.

On to `CC(C)NC(=N)NC(=N)Nc1ccc(Cl)cc1` [proguanil], for which, in assay [1], the inhibition at 10 µM is -7.92%.

On to `CCOC(=O)C1=C(COCCN)NC(C)=C(C(=O)OC)C1c1ccccc1Cl` (stereo not drawn) [amlodipine], for which the inhibition at 10 µM in assay [1] was -59.8%.

Take `CN[C@@H](C)[C@H](O)c1ccccc1` [ephedrine hydrochloride]: the inhibition at 10 µM in assay [1] was -29%.
